Assay results taken from patent US20260337225A1, “SMALL PEPTIDE AND USE THEREOF IN MUCOSAL REPAIR” (FORREST BIO-PHARM (SHENZHEN) CO., LTD., priority 2022, published 2026).
Values joined by “and” are separate entries in the source; they are usually repeats but may differ in a detail not shown here. Equal entries are not always repeated. No end group written: not given here.

Experiments:
mucosal repair = assay: Screening of active monomers for mucosal repair effects; settings: repeated experiments and screening; in words
Source text: The inventors observed the active monomers in the polypeptide mixture of Polimi-1 rice variety by mass spectrometry analysis of the polypeptides from various ordinary rice varieties and Polimi-1 rice variety. The small peptides identical to ordinary rice varieties and with high levels in ordinary rice varieties were excluded by a method of exclusion. Finally, the small peptides with higher levels in Polimi-1 rice variety and lower levels in other ordinary rice varieties were selected for further study, as well as those with higher levels in Polimi-1 rice variety and absent in other ordinary rice varieties. Since peptides with molecular weights below 1500 Daltons were extracted from the mixed polypeptide mixture previously obtained, other peptides above this threshold were excluded.

[1] = system: rat model of chronic gastric ulcer; assay: Rat model of chronic gastric ulcer (anhydrous ethanol followed by aspirin); assay type: in vivo
Procedure: The function of the small peptides obtained in Embodiment 2 was validated in the present embodiment by using a rat model of chronic gastric ulcer.
Control group (model group): A rat model of chronic gastric ulcer model was constructed by intragastric administration of anhydrous ethanol (1 mL/200 g), followed by intragastric administration of 200 mg/kg aspirin 2 h later. The rats were administered with aspirin once daily for 4 days. At day 5, the rats were administered with an equal volume of saline.
Blank group: The rats were administered with an equal volume of saline.
Drug treatment groups: A rat model of chronic gastric ulcer was constructed as above-mentioned. At day 5, the rats were respectively administered with the rice polypeptide mixture (50 mg/kg), small peptide P1 (0.5 mg/kg), or small peptide P2 (0.5 mg/kg) twice daily for 3 days. On day 4, the rats were sacrificed and their gastric necropsy was performed.
Positive control group (omeprazole 2.6 mg/kg): A rat model of chronic gastric ulcer was constructed as above. At day 5, the rats were administered with omeprazole (2.6 mg/kg) twice daily for 3 days. On day 4, The rats were sacrificed and their gastric necropsy was performed.
Each group consisted of 10 rats. After 24 h of modeling, the rats were sacrificed to extract the gastric tissue, for measuring gastric pH, and observing changes in ulcer area via gastric tissue dissection. Liver and kidney tissues were collected for pathological section observation to assess drug safety.

Rat liver = assay: Animal safety observation: rat liver injury (serum alaninetransaminase activity); assay type: in vivo; settings: 14 days; for Alaninetransaminase Activity, Average / Alaninetransaminase Activity: intragastric gavage, rat serum; for Alaninetransaminase Activity, Average: average of 6 rats, saline average P1 35.83333, P2 30.83333; for Alaninetransaminase Activity: individual rats (Rat 1-6)
Procedure: (§1) The rats were administered with the small peptides via intragastric gavage at doses of 500 mg/kg and 1000 mg/kg daily for 14 days. Changes in body weight were recorded. On day 14, the rats were sacrificed to measure alaninetransaminase (ALT) activity and blood urea nitrogen (BUN) levels in rat serum for assessing whether there was hepatotoxicity and nephrotoxicity in rats.

[2] = system: normal human hepatic parenchymal L-02 cells; assay: Hepatotoxicity: cytotoxicity in L-02 cells by CCK-8 assay; assay type: cell-based; settings: 10-200 μg/mL, 24 h, in words
Procedure: Referring to the method from a literature (Determination of emodin in L-02 cells and cell culture media with liquid chromatography-mass spectrometry: Application to a cellular toxicokinetic study. J Pharm Biomed Anal. 2012; 71:71-78), normal human hepatic parenchymal L-02 cells (obtained from Shanghai Cell Bank) were seeded into 96-well plates and treated with small peptides P1 and P2 at concentrations of 0 μg/mL, 10 μg/mL, 20 μg/mL, 50 μg/mL, 100 μg/mL, and 200 μg/mL. After 24-hour stimulation, the cytotoxicity was assessed by Cell Counting Kit-8 (CCK-8) assay.

[3] = system: mouse model of acute gastric ulcer; assay: Mouse model of acute gastric ulcer (anhydrous ethanol); assay type: in vivo
Procedure: In this embodiment, the function of the small peptides obtained in Embodiment 2 was validated using a mouse model of acute gastric ulcer.
Control group (model group): A mouse mode of acute gastric ulcer was constructed using anhydrous ethanol (0.1 mL/10 g) (referring to the literature of Study on Action of kangfuxin Solution on Experimental Gastric ulcer [J]. Chinese Traditional Patent Medicine, 2001, 23(2): 122-124. DOI: 10.3969/j.issn.1001-1528.). After modeling, the mice were administered with an equal volume of saline.
Blank group: The mice were administered with an equal volume of saline.
Drug treatment groups: A mouse mode of acute gastric ulcer was constructed by treating the mouse with anhydrous ethanol (0.1 mL/10 g). At 2 h, 12 h, and 22 h after modeling, the mice were administered with the rice polypeptide mixture (50 mg/kg) as the mixture group, small peptide P1 (0.5 mg/kg) as the P1 group, and small peptide P2 (0.5 mg/kg) as the P2 group, respectively.
Each group consisted of 8 mice. After 24 h of modeling, the mice were sacrificed, to extract the gastric tissue, and observe changes in bleeding points and ulcer area via gastric tissue dissection.

Rat kidney = assay: Animal safety observation: rat kidney injury (serum blood urea nitrogen levels); assay type: in vivo; settings: 14 days; for Blood Urea Nitrogen Levels: intragastric gavage, rat serum, individual rats (Rat 1-6)
Procedure: as §1

[4] = Animal safety observation: rat body weight; assay type: in vivo; settings: for Rat body weight: 1000 mg/kg daily, intragastric gavage, individual rats, Rat 1-7 = c1-c7, 1000 mg/kg
Procedure: as §1

[5] = system: normal human kidney-2 cells (HK-02, HK-2); assay: Nephrotoxicity: cytotoxicity in HK-2 cells by CCK-8 assay; assay type: cell-based; settings: 10-200 μg/mL, 24 h, in words
Procedure: Referring to the method from a literature (Sinomenine improve diabetic nephropathy by inhibiting fibrosis and regulating the JAK2/STAT3/SOCS1 pathway in streptozotocin-induced diabetic rats. Life Sci. 2021; 265:118855), normal human kidney-2 cells (HK-02, HK-2) (Shanghai Cell Bank) were seeded into 96-well plates and administered with small peptides P1 and P2 at concentrations of 0 μg/mL, 10 μg/mL, 20 μg/mL, 50 μg/mL, 100 μg/mL, and 200 μg/mL. After 24-hour stimulation, the cytotoxicity was assessed by Cell Counting Kit-8 (CCK-8) assay.

[6] = 500 and 1000 mg/kg daily, rats, in words

Q: For “GASRIIGVDL [Small peptide P1, GASRIIGVDL]”, which mucosal repair effects (mucosal repair) is on record?
A: found to have mucosal repair effects

Q: And the Ulcer index ([1]; 0.5 mg/kg twice daily for 3 days, 10 rats, ratio of ulcer area to gastric mucosal tissue area, Control group 40.5 ± 5.3)?
A: 5.8 ± 2.5%

Q: And the Ulcer inhibition rate ([1]; 0.5 mg/kg twice daily for 3 days, percentage reduction in ulcer area compared to the Control group)?
A: 85.7%

Q: And the anti-ulcer effects ([1]; P1, P2 0.5 mg/kg, mixture 50 mg/kg, in words)?
A: exhibit anti-ulcer effects

Q: What about the “P versus Positive control group” value ([1]; anti-ulcer effects compared to omeprazole 2.6 mg/kg, P1, P2 0.5 mg/kg, mixture 50 mg/kg) of the same sequence?
A: > 0.05

Q: And the “Alaninetransaminase Activity, Average” value (Rat liver; 500 mg/kg daily)?
A: 27 IU/L

Q: And the “Alaninetransaminase Activity” value (Rat liver; 500 mg/kg daily)?
A: 35 IU/L and 44 IU/L and 20 IU/L and 15 IU/L and 21 IU/L and 27 IU/L

Q: And the “Alaninetransaminase Activity, Average” value (Rat liver; 1000 mg/kg daily)?
A: 39.83 IU/L

Q: What about the “Alaninetransaminase Activity” value (Rat liver; 1000 mg/kg daily) of the same sequence?
A: 32 IU/L and 39 IU/L and 50 IU/L and 27 IU/L and 47 IU/L and 44 IU/L

Q: What about the hepatotoxicity (Rat liver; [6]) of the same sequence?
A: without hepatotoxicity

Q: And the “viability of normal human liver cells L-02” value [2]?
A: no effect

Q: And the hepatotoxicity ([2]; L-02 cells)?
A: no hepatotoxicity

Q: What about the Ulcer index ([3]; 0.5 mg/kg at 2 h, 12 h and 22 h after modeling, 8 mice, ratio of ulcer area to gastric mucosal tissue area, Control group 58.3 ± 10.1) of the same sequence?
A: 8.2 ± 3.1%

Q: What about the Ulcer inhibition rate ([3]; 0.5 mg/kg at 2 h, 12 h and 22 h after modeling, percentage reduction in ulcer area compared to the Control group) of the same sequence?
A: 85.9%

Q: What about the “result compared to the mixture group” value ([3]; 0.5 mg/kg versus mixture 50 mg/kg, in words) of the same sequence?
A: better results than the mixture in larger dose

Q: What about the anti-ulcer effects ([3]; 0.5 mg/kg, in words) of the same sequence?
A: excellent anti-ulcer effects

Q: What about the “Blood Urea Nitrogen Levels” value (Rat kidney; 500 mg/kg daily) of the same sequence?
A: 25 mg/dL and 39 mg/dL and 29 mg/dL and 33 mg/dL and 36 mg/dL and 37 mg/dL

Q: What about the “Blood Urea Nitrogen Levels” value (Rat kidney; 1000 mg/kg daily) of the same sequence?
A: 28 mg/dL and 30 mg/dL (2×) and 32 mg/dL and 36 mg/dL and 34 mg/dL

Q: And the nephrotoxicity (Rat kidney; [6])?
A: without hepatotoxicity and nephrotoxicity

Q: And the Rat body weight ([4]; Day 1)?
A: 210 g and 214 g and 218 g and 217 g and 216 g (2×) and 213 g

Q: And the Rat body weight ([4]; Day 2)?
A: 212 g and 215 g (2×) and 219 g and 220 g and 222 g and 217 g

Q: And the Rat body weight ([4]; Day 3)?
A: 212 g and 216 g and 220 g and 221 g and 224 g and 209 g and 218 g

Q: What about the Rat body weight ([4]; Day 4) of the same sequence?
A: 214 g and 218 g

Q: What about the Rat body weight ([4]; Day 5) of the same sequence?
A: 215 g and 220 g (2×) and 224 g and 228 g (2×) and 225 g

Q: What about the Rat body weight ([4]; Day 6) of the same sequence?
A: 215 g and 227 g and 224 g and 230 g and 229 g and 223 g and 228 g

Q: What about the Rat body weight ([4]; Day 7) of the same sequence?
A: 216 g and 228 g and 229 g (2×) and 236 g and 231 g and 224 g

Q: What about the Rat body weight ([4]; Day 8) of the same sequence?
A: 218 g and 229 g and 232 g and 235 g and 233 g and 228 g and 231 g

Q: And the Rat body weight ([4]; Day 9)?
A: 220 g and 229 g and 234 g (2×) and 238 g and 233 g and 230 g

Q: What about the Rat body weight ([4]; Day 10) of the same sequence?
A: 225 g and 231 g and 237 g and 239 g and 238 g and 234 g and 236 g

Q: What about the Rat body weight ([4]; Day 11) of the same sequence?
A: 226 g and 232 g and 238 g and 241 g (2×) and 237 g and 239 g

Q: And the Rat body weight ([4]; Day 12)?
A: 227 g and 233 g and 238 g and 243 g (2×) and 244 g and 239 g

Q: And the Rat body weight ([4]; Day 13)?
A: 228 g and 235 g and 239 g and 244 g (2×) and 248 g and 240 g

Q: And the Rat body weight ([4]; Day 14)?
A: 230 g and 237 g and 240 g and 247 g and 249 g and 243 g (2×)

Q: What about the Rat body weight ([4]; Day 15) of the same sequence?
A: 235 g and 238 g and 242 g and 248 g and 250 g and 245 g (2×)

Q: What about the “effects on rat body weight” value ([4]; daily intragastric gavage for 14 days, in words) of the same sequence?
A: minimal effects

Q: And the “viability of normal human kidney cells HK-02 (HK-2)” value [5]?
A: no effect

Q: What about the nephrotoxicity ([5]; HK-2 cells) of the same sequence?
A: no nephrotoxicity
